4 molecules from patent US20040170622A1, “Methods and compositions for modulating XBP-1 activity” (President and Fellows of Harvard College, priority 2002, published 2004) can be followed below.

One series relates to J558 myeloma cells. Description: Apoptosis of J558 myeloma cells (Annexin V staining). In kind it is cell-based. To be noted: for apoptosis, combination of Tm and MG-132: J558, 18 hrs, suboptimal concentrations. How it is done: (A) BiP and CHOP induction was examined by northern blot analysis after treating NIH3T3 or J558 myeloma cells with either MG-132 (20 μM), Tm (10 μg/ml) or both. Cells were pretreated with MG-132 for 1 hr and then further treated with Tm for 4 hrs. Ethidium bromide staining of the gel is shown at the bottom. (B) Inhibition of caspase-12 processing by proteasome inhibitors. Processing of full-length caspase-12 was examined by Western blotting in J558 myeloma cells treated with thapsigargin (1 μM) or PIs (20 μM) during the indicated time periods. (C) Alteration in the ratio of XBP-1 protein species in J558 cells were treated with increasing amounts of MG-132 for 16 hrs. Cells undergoing apoptosis were counted by Annexin V staining. (D) Time course of the XBP-1s to XBP-1u shift. Cells were treated with MG-132 (1 μM) for the indicated times and XBP-1u and spliced protein levels and cell death determined. (E) Alteration in the ratio of XBP-1 species in the MM.1s human myeloma line. Cells were treated with PS-341 (8 nM) in a time course analysis and XBP-1 protein species quantified.
(A) Synergistic effect of Tm and MG-132 on apoptosis. Annexin V positive cells were counted after treating J558 cells for 18 hrs with suboptimal concentrations of Tm and MG-132 as indicated. (B) J558-iXBP cells were generated by retroviral transduction of J558 cells with the U6 promoter based XBP-1 RNAi vector. (C) XBP-1 dependent gene expression in J558 cells that express control GFP, dn-XBP or iXBP-1 treated with Tm. Generation of dn-XBP-1 J558 cells by infection with a retrovirus containing dn-XBP cDNA inserted into the GFP-RV vector (N. N. lwakoshi et al., Nature Immunology 4, 321-329 (2003)). ERdj4, p58^IPK, BiP and CHOP gene expression were examined by Northern blot analysis. (D) Increased apoptosis in iXBP-1 and dn-XBP-1 expressing J558 cells. Cells were treated with the indicated amounts of Tm for 48 hrs and dead cells counted after Annexin V staining.
Cells were stained with annexin V-PE (BD PharMingen, San Jose, Calif.) as recommended and analyzed on a FACScan flow cytometer (Becton Dickinson, San Jose, Calif.).

For a further series, the system named is ERdj4 promoter. Description: ERdj4GL3 promoter luciferase reporter in MEF cells. In kind it is cell-based. To be noted: wt MEF, Tm 1 μg/ml 16 hours or cotransfected XBP-1s. How it is done:
(A) Wild type and XBP-1^−/− MEF cells were treated with 10 μg/ml Tm for the indicated time periods. Total RNAs were isolated and subjected to Northern blot analysis. The same blot was hybridized sequentially with BiP, CHOP, ERdj4, p58^ipk, ATF6α and Gla probes. The p58^ipk probe is probe A, from the 5′ end of the gene. Ethidium bromide staining of the gel before blotting is shown at the bottom for loading control. (B) All isoforms of p58^ipk are XBP-1 dependent. Here, Northern blot analysis was performed with probe B which recognizes sequences at the 3′ end of the gene. (C) XBP-1-dependent genes are also IRE1α-dependent. Northern blot analysis of RNA prepared from IRE 1α^−/− MEFs treated with Tm for varying time periods and assessed for expression of ERdj4 and p58^ipk. (D) The ERdj4GL3 reporter was transfected with or without XBP-1s plasmid into wild type and XBP-1^−/− MEF cells. Cells were treated with Tm at 1 μg/ml for 16 hours before harvesting as indicated. Luciferase activity was normalized to the Renilla activity. (E) Induction of BiP, ERdj4 and p58^ipk in primary B cells by LPS. B220+ primary B cells were isolated from spleens of wildtype or XBP-1^−/− RAG2^−/− lymphoid chimeras. Cells were untreated or stimulated for three days with 20 μg/ml LPS. Expression of BiP, ERdj4 and p58^ipk was determined by Northern blot analysis […]
In general terms: In a reporter assay the amount or activity of a reporter protein is the signal.

Where a SMILES comes first, the peptide text is derived from it. The star is where a group is joined. Cbz = O=C(OCc1ccccc1)*

Turning to tunicamycin [Tm], the “apoptosis, combination of Tm and MG-132” value with J558 myeloma cells was “synergistically induced apoptosis”. Further, in the series on ERdj4 promoter, the “ERdj4 promoter luciferase reporter induction” value was “induced by Tm as well as by cotransfected XBP-1s”.
With `CC(C)C[C@@H](C=O)NC(=O)[C@H](CC(C)C)NC(=O)[C@H](CC(C)C)NC(=O)OCc1ccccc1` [MG-132] (Cbz-Leu-Leu-Leu-aldehyde), the “apoptosis, combination of Tm and MG-132” value in the series with J558 myeloma cells is on record as “synergistically induced apoptosis”. The “apoptosis in J558 cells” value in the series with J558 myeloma cells (agent alone) was “induced apoptosis in J558 cells”.

B1: dn-XBP: dominant negative XBP-1 containing the N-terminal 188 aa, lacking transactivation domain, retaining leucine zipper (protein)
chain: MVVVAAAPSAATAAPKVLLLSGQPASGGRALPLMVPGPRAAGSEASGTPQARKRQRLTHLSPEEKALRRKLKNRVAAQTARDRKKARMSELEQQVVDLEEENHKLQLENQLLREKTHGLVVENQELRTRLGMDTLDPDEVPEVEAKGSGVRLVAGSAESAAGAGPVVTSPEHLPMDSDTVASSDSESD
Turning to B1, the “apoptosis upon Tm treatment compared to control GFP-transduced cells” value with J558 myeloma cells (transduced J558 cells, Tm 48 hrs) is on record as “significantly increased apoptosis”. Also, the “cell proliferation or viability at baseline” value with J558 myeloma cells (transduced J558 cells, no Tm) is given as “No effect on cell proliferation or viability”.

B2: XBP-1s: vector encoding only the spliced form of murine XBP-1, a protein of 371 aa (protein)
chain: MVVVAAAPSAATAAPKVLLLSGQPASGGRALPLMVPGPRAAGSEASGTPQARKRQRLTHLSPEEKALRRKLKNRVAAQTARDRKKARMSELEQQVVDLEEENHKLQLENQLLREKTHGLVVENQELRTRLGMDTLDPDEVPEVEAKGSGVRLVAGSAESAAGAGPVVTSPEHLPMDSDTVASSDSESDILLGILDKLDPVMFFKCPSPESASLEELPEVYPEGPSSLPASLSLSVGTSSAKLEAINELIRFDHVYTKPLVLEIPSETESQTNVVVKIEEAPLSSSEEDHPEFIVSVKKEPLEDDFIPELGISNLLSSSHCLRPPSCLLDAHSDCGYEGSPSPFSDMSSPLGTDHSWEDTFANELFPQLISV
Turning to B2, in the series with ERdj4 promoter, the “ERdj4 promoter luciferase reporter induction” value is reported as “induced by Tm as well as by cotransfected XBP-1s”.
